In BindingDB's records for doi:10.7270/Q25T3HZB (Burnham Center For Chemical Genomics, 2010) one finds IC50 data, which are given here for 2 molecules.

The target in the assay is Kappa-type opioid receptor (Homo sapiens, UniProt P41145). Briefly: KOR antagonists by imaging, SAR follow-up, image-based (AID 2348).

Usually IC50 stands for the concentration that gives 50% inhibition.

Sequence of Kappa-type opioid receptor (P41145 whole entry): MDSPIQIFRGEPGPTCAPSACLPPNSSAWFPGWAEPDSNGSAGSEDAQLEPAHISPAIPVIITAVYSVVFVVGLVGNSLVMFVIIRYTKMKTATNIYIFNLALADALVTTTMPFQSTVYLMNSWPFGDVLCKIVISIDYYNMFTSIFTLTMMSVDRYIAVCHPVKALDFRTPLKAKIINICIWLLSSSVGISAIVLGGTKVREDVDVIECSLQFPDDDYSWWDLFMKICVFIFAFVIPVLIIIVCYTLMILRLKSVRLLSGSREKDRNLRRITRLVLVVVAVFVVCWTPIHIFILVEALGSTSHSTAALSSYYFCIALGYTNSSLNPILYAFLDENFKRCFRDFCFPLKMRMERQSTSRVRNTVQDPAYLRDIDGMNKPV

The molecule `CCC(N=Nc1ccnc2cc(Cl)ccc12)c1ccc(O)cc1` (configuration not stated) [4-[1-[2-(7-chloroquinolin-4-yl)hydrazinyl]propylidene]cyclohexa-2,5-dien-1-one] returned a half-maximal inhibitory concentration (IC50) of 3.62 µM. Then `Oc1ccc(CN=Nc2ccnc3cc(Cl)ccc23)cc1O` [(4Z)-4-[[2-(7-chloroquinolin-4-yl)hydrazinyl]methylidene]-2-hydroxycyclohexa-2,5-dien-1-one], with 24.8 µM.
